Results from ChEMBL document CHEMBL5724696, “Autophagy assay results for EUbOPEN Chemogenomics Library” (2024).
Several values for one entry are separate records, joined by “and”; a condition that tells them apart may be missing. Equal entries are not always repeated.

Legend:
Assay type in all cases: functional, Homo sapiens
TERT-RPE1 = assay: (§1) Here: values are normalized to the negative (DMSO; defined as 0% autophagy induction) and positive (250nM Torin1; mTOR inhibitor; defined as maximal inducer of autophagy = 100%) control compounds and represented as % of autophagy induction. […] The impact of autophagy induction on cells is complex and depends on the affected target. As such, the magnitude of a phenotype may not be equally mirrored in the %-value of autophagy induction and vice versa. The dynamics of the induction may indicate the mode of activation: e.g. activation via phosphorylation or a signaling cascade may occur fast, while activation via transcription factors may take considerably longer. […] Of note, treatment concentrations may be sub-optimal for specific compounds, leading to false negative annotations.; conditions: Culturing Media DMEM/F12 (1:1), 1 % Penicillin/Streptomycin, 10% Fetal bovin serum Add-On: No, Screening Media Control DMEM/F12 (1:1), Screening Media Samples DMEM/F12 (1:1)
U2OS [1] = assay: as §1; conditions: Culturing Media DMEM, 1 % Penicillin/Streptomycin, 10% Fetal bovin serum Add-On: No, Screening Media Control DMEM, Screening Media Samples DMEM
U2OS [2] = assay: as §1; conditions: Culturing Media DMEM, 1 % Penicillin/Streptomycin, 10% Fetal bovin serum Add-On: No, Screening Media Control DMEM, Screening Media Samples DMEM; remark: listed apart in the source
[3] = Compound Concentration 0.5 uM, Timepoint 12 hours
[4] = Compound Concentration 0.5 uM, Timepoint 24 hours
[5] = Compound Concentration 0.5 uM, Timepoint 36 hours
[6] = Compound Concentration 0.5 uM, Timepoint 60 hours
[7] = Compound Concentration 2 uM, Timepoint 12 hours
[8] = Compound Concentration 2 uM, Timepoint 24 hours
[9] = Compound Concentration 2 uM, Timepoint 36 hours
[10] = Compound Concentration 2 uM, Timepoint 60 hours
[11] = Compound Concentration 10 uM, Timepoint 12 hours
[12] = Compound Concentration 10 uM, Timepoint 24 hours
[13] = Compound Concentration 10 uM, Timepoint 36 hours
[14] = Compound Concentration 10 uM, Timepoint 60 hours

`CC1=C2C[C@H]3[C@@H](CC=C4C[C@@H](O)CC[C@@]43C)[C@@H]2CC[C@]12O[C@@H]1C[C@H](C)CN[C@H]1[C@H]2C` [CYCLOPAMINE] was tested, and the autophagy induction (TERT-RPE1; Compound Concentration 0.5 uM, Timepoint 12 hours, 12 h, 0.5 µM) was -1.95% and 0.112%, the autophagy induction (TERT-RPE1; Compound Concentration 0.5 uM, Timepoint 24 hours, 24 h, 0.5 µM) was -5.579% and 2.177% and the autophagy induction (TERT-RPE1; Compound Concentration 0.5 uM, Timepoint 36 hours, 36 h, 0.5 µM) was -7.952% and 1.185%. The autophagy induction (TERT-RPE1; Compound Concentration 0.5 uM, Timepoint 60 hours, 60 h, 0.5 µM) was -10.1078% and 0.5911%, the autophagy induction (TERT-RPE1; Compound Concentration 2 uM, Timepoint 12 hours, 12 h, 2 µM) was -0.5068% and 11.5959% and the autophagy induction (TERT-RPE1; Compound Concentration 2 uM, Timepoint 24 hours, 24 h, 2 µM) was -0.6761% and 8.252%. For the same compound, the autophagy induction (TERT-RPE1; Compound Concentration 2 uM, Timepoint 36 hours, 36 h, 2 µM) was -1.445% and 8.279%, the autophagy induction (TERT-RPE1; Compound Concentration 2 uM, Timepoint 60 hours, 60 h, 2 µM) was -2.949% and 8.955% and the autophagy induction (TERT-RPE1; Compound Concentration 10 uM, Timepoint 12 hours, 12 h, 10 µM) was 18.7284% and 8.103%. For the same compound, the autophagy induction (TERT-RPE1; Compound Concentration 10 uM, Timepoint 24 hours, 24 h, 10 µM) was 21.8058% and 8.836%, the autophagy induction (TERT-RPE1; Compound Concentration 10 uM, Timepoint 36 hours, 36 h, 10 µM) was 27.6829% and 10.6231% and the autophagy induction (TERT-RPE1; Compound Concentration 10 uM, Timepoint 60 hours, 60 h, 10 µM) was 29.1115% and 13.2783%. For the same compound, the autophagy induction (U2OS [1]; [3]) was -10.7714%, the autophagy induction (U2OS [1]; [4]) was -6.065% and the autophagy induction (U2OS [1]; [5]) was -46.3072%. The autophagy induction (U2OS [1]; [6]) was -1.6767%, the autophagy induction (U2OS [1]; [7]) was -23.8167% and the autophagy induction (U2OS [1]; [8]) was -9.227%. It also gave an autophagy induction (U2OS [1]; [9]) of -62.0777%, an autophagy induction (U2OS [1]; [10]) of -2.064% and an autophagy induction (U2OS [1]; [11]) of -31.4833%. The autophagy induction (U2OS [1]; [12]) was -9.078%, the autophagy induction (U2OS [1]; [13]) was -61.7295% and the autophagy induction (U2OS [1]; [14]) was -4.044%. For the same compound, the autophagy induction (U2OS [2]; [3]) was -5.379%, the autophagy induction (U2OS [2]; [4]) was -12.5809% and the autophagy induction (U2OS [2]; [5]) was -11.7869%. The autophagy induction (U2OS [2]; [6]) was -7.179%, the autophagy induction (U2OS [2]; [7]) was -12.942% and the autophagy induction (U2OS [2]; [8]) was -16.2845%. For the same compound, the autophagy induction (U2OS [2]; [9]) was -11.3886%, the autophagy induction (U2OS [2]; [10]) was -12.7281% and the autophagy induction (U2OS [2]; [11]) was -9.168%. The autophagy induction (U2OS [2]; [12]) was -9.072%, the autophagy induction (U2OS [2]; [13]) was -3.104% and the autophagy induction (U2OS [2]; [14]) was 2.518%.
